PubChem BioAssay AID278 (DTP/NCI, 2004)
Inconclusive results are not listed.

Tested on: nude mice, A549 intrarenal xenograft, tumor weight change
Experiment: NCI In Vivo Anticancer Drug Screen. Data for tumor model A549 Human Adenocarcinoma of Lung with characteristics of Type II Alveolar Epithelial cells (intrarenal inoculation) in NU/NU BALB/C (nude) mice
Settings: endpoint: mean tumor weight change, schedule: Q04DX003 (ip), higher = larger tumour
Procedure: The antitumor activity of compounds was measured in mice bearing transplantable tumors. Survival or tumor size were measured and the results are expressed as the measurement made in the treated group (T) divided by the measurement made in the vehicle treated control group (C). The tumor model used in this assay is A549 Human Adenocarcinoma of Lung with characteristics of Type II Alveolar Epithelial cells (intrarenal inoculation) in NU/NU BALB/C (nude) mice

SMILES: N#Cc1c(N)[nH]c2ccc(Sc3ccccc3)cc12
- T/C (dose: 30.0 mg/kg/injection, vehicle: saline): 106 % of control
- T/C (dose: 60.0 mg/kg/injection, vehicle: saline): 42 % of control
- T/C (dose: 240.0 mg/kg/injection, vehicle: saline): 49 % of control

SMILES: COc1cc2c(c(OC)c1O)-c1ccc(OC)c(=O)cc1[C@@H](NC(=O)C(F)(F)F)CC2
- T/C (dose: 5.0 mg/kg/injection, vehicle: Klucel (hydroxypropylcellulose) (HPC)): 7 % of control
- T/C (dose: 7.2 mg/kg/injection, vehicle: Klucel (hydroxypropylcellulose) (HPC)): 116 % of control
- T/C (dose: 10.0 mg/kg/injection, vehicle: Klucel (hydroxypropylcellulose) (HPC)): 48 % of control
- T/C (dose: 12.0 mg/kg/injection, vehicle: Klucel (hydroxypropylcellulose) (HPC)): 90 % of control

SMILES: CCC(NC(N)=O)C(CC)NC(N)=O (stereo unspecified)
- T/C (dose: 6.25 mg/kg/injection, vehicle: saline with Tween-80): 68 % of control
- T/C (dose: 12.5 mg/kg/injection, vehicle: saline with Tween-80): 120 % of control
- T/C (dose: 25.0 mg/kg/injection, vehicle: saline with Tween-80): 102 % of control

SMILES: ClCCCSSCCCCl
- T/C (dose: 62.5 mg/kg/injection, vehicle: saline with Tween-80): 56 % of control
- T/C (dose: 125.0 mg/kg/injection, vehicle: saline with Tween-80): 76 % of control
- T/C (dose: 250.0 mg/kg/injection, vehicle: saline with Tween-80): 81 % of control
- T/C (dose: 500.0 mg/kg/injection, vehicle: saline with Tween-80): 82 % of control

SMILES: CCCCCCNc1nc(NCCCCCC)c2[nH]c(NCCCCCC)nc2n1
- T/C (dose: 75.0 mg/kg/injection, vehicle: saline with Tween-80): 52 % of control
- T/C (dose: 150.0 mg/kg/injection, vehicle: saline with Tween-80): 117 % of control

SMILES: Cc1nc(C(Cl)(Cl)Cl)[nH]c(=O)c1SCCO
- T/C (dose: 150.0 mg/kg/injection, vehicle: distilled water + Tween-80 + alcohol): 31 % of control
- T/C (dose: 150.0 mg/kg/injection, vehicle: distilled water + alcohol): 50 % of control
- T/C (dose: 300.0 mg/kg/injection, vehicle: distilled water + Tween-80 + alcohol): 181 % of control
- T/C (dose: 300.0 mg/kg/injection, vehicle: distilled water + alcohol): 26 % of control
- T/C (dose: 600.0 mg/kg/injection, vehicle: distilled water + alcohol): 2 % of control

SMILES: O=C(O)c1cc(C(=O)O)c(C(=O)O)cc1C(=O)O.[NH2-].[NH2-].[NH2-].[NH2-].[Pt+2].[Pt+2]
- T/C (dose: 12.5 mg/kg/injection, vehicle: water): 102 % of control

SMILES: C/C=C/CC(C)C(O)C1C(=O)NC(CC)C(=O)N(C)CC(=O)N(C)C(CC(C)C)C(=O)NC(C(C)C)C(=O)N(C)C(CC(C)C)C(=O)NC(C)C(=O)NC(C)C(=O)N(C)C(CC(C)C)C(=O)N(C)C(CC(C)C)C(=O)N(C)C(C(C)C)C(=O)N1C (stereo unspecified)
- T/C (dose: 75.0 mg/kg/injection, vehicle: Klucel (hydroxypropylcellulose) (HPC)): 158 % of control
- T/C (dose: 150.0 mg/kg/injection, vehicle: Klucel (hydroxypropylcellulose) (HPC)): 65 % of control

SMILES: COC12[C@@H]3N[C@@H]3CN1C1=C(C(=O)C(NCCSSCCNC3=C(C)C(=O)C4=C(C3=O)C(COC(N)=O)[C@]3(OC)C5N[C@@H]5CN43)=C(C)C1=O)[C@@H]2COC(N)=O (stereo partly specified)
- T/C (dose: 1.57 mg/kg/injection, vehicle: DMSO): 29 % of control
- T/C (dose: 3.13 mg/kg/injection, vehicle: DMSO): -77 % of control
- T/C (dose: 6.25 mg/kg/injection, vehicle: DMSO): -33 % of control
- T/C (dose: 12.5 mg/kg/injection, vehicle: DMSO): 2 % of control

SMILES: CC[C@]1(O)C[C@H]2CN(CCc3c([nH]c4ccccc34)[C@@](C(=O)OC)(c3cc4c(cc3OC)N(C)[C@H]3[C@@](O)(C(=O)OC)[C@H](OC(C)=O)[C@]5(CC)C=CCN6CC[C@]43[C@@H]65)C2)C1
- T/C (dose: 0.67 mg/kg/injection, vehicle: Klucel (hydroxypropylcellulose) (HPC)): -2 % of control
- T/C (dose: 1.0 mg/kg/injection, vehicle: Klucel (hydroxypropylcellulose) (HPC)): -49 % of control

SMILES: CC[C@@]1(O)C(=O)OCc2c1cc1n(c2=O)Cc2cc3ccccc3nc2-1
- T/C (dose: 2.0 mg/kg/injection, vehicle: saline with Tween-80): 31 % of control
- T/C (dose: 4.0 mg/kg/injection, vehicle: saline with Tween-80): 29 % of control
- T/C (dose: 6.0 mg/kg/injection, vehicle: saline with Tween-80): -21 % of control
- T/C (dose: 8.0 mg/kg/injection, vehicle: saline with Tween-80): 17 % of control
- T/C (dose: 10.0 mg/kg/injection, vehicle: saline with Tween-80): -80 % of control
- T/C (dose: 16.0 mg/kg/injection, vehicle: saline with Tween-80): 12 % of control
